Structures can show the parent of a compound that is named as a salt.
Target: T1, lysyl oxidase (Bos taurus, UniProt P33072)
T1 sequence (P33072 170-418): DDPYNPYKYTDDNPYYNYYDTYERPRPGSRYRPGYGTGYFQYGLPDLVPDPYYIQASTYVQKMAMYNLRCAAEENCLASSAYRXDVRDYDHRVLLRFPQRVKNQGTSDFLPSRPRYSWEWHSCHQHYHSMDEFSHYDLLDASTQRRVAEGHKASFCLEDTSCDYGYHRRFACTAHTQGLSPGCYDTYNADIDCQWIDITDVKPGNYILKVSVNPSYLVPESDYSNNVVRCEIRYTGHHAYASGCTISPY
Assay: Lysyl oxidase inhibition (fluorometric assay, cadaverine substrate, horseradish peroxidase/homovanillic acid)
Type: biochemical
Conditions: lysyl oxidase preparation from bovine aorta, 55° C., 10 minutes, pH 8.2 borate buffer, read-out: IC50 (concentration of test compound required to inhibit the enzyme activity by 50 percent)
Protocol: Lysyl oxidase preparation is obtained from bovine aorta by the procedures modified from M. A. Williams and H. M. Kagan, Anal. Biochem. 149, 430-437 (1985) and H. M. Kagan and K. A. Sullivan, Methods in Enzyml. 82, 637-650 (1982). The aorta is obtained fresh on the day of the enzyme preparation and is maintained at 4° C. for the duration of its use in the experiments. The aorta is ground fine and is homogenized for 90 seconds in buffer (2.5 ml of a buffer consisting of 16 mM potassium phosphate and 1 mM phenylmethylsulfonyl fluoride/g of tissue) with 0.15M NaCl added, then the mixture is centrifuged (20 minutes at 11,000×g). The homogenization followed by centrifugation procedure is repeated with buffer plus 0.15 M NaCl, buffer alone, and buffer plus 1M urea. After homogenization in 1M urea, the mixture is stirred for 1 hour prior to centrifugation. The resulting pellet is homogenized in buffer plus 4M urea, stirred for 18 hours, and centrifuged. The supernatant with lysyl oxidase activity is saved. The tissue is homogenized in buffer plus 4M urea, stirred overnight, and centrifuged twice more. The supernatants with lysyl oxidase activity are saved.
The assay is adopted from that of P. C. Trackman, et al., Anal. Biochem. 113, 336-342 (1981). Each assay consists of two tubes, one that contains 0.2 mM β-aminopropionitrile, BAPN, from the start and one to which BAPN is added to quench the reaction. Lysyl oxidase preparation (0.150 ml), urea (0.300 ml, 4M), buffer (0.930 ml, 200 mM borate at pH =8.2), homovanillic acid (0.020 ml of 50 mM solution), and horseradish peroxidase (0.010 ml of Sigma Type II at 5 mg/ml protein) are incubated for 2 minutes at 55° C. in a test tube. Cadaverine (0.100 ml of 150 mM) and test compound, if any, is added and the incubation continued at 55° C. for an additional 10 minutes. The test tubes containing this mixture are then cooled in a ice bath after adding BAPN to any tubes not containing it. The difference in fluorescence (excitation 315 nm and emission 425 nm) between corresponding tubes that received BAPN at 0 minutes and at 10 minutes is a measure of enzyme activity. A standard curve to determine the amount of cadaverine converted by lysyl oxidase is prepared as follows. Assay mixtures containing BAPN are made up as described and known amounts of hydrogen peroxide are added simultaneously with cadaverine and the fluorescence changes after 10 minutes reaction are determined.
Using this method the lysyl oxidase inhibiting activity expressed as IC50 (inhibitory concentration), that is the concentration of test compound required to inhibit the enzyme activity by 50 percent, was determined for various compounds of this invention.

Row | SMILES | IC50
1 | C=C=C(CN)c1cccs1 [β-Ethenylidene-2-Thiopheneethanamine-4-Methylbenzenesulfonate] | 10 nM
2 | C=C=C(CN)c1ccc(OC)cc1 [β-Ethenylidene-4-Methoxybenzeneethanamine-4-Methylbenzenesulfonate] | 10 nM
3 | C=C=C(CN)c1cc2ccccc2s1 [β-Ethylenylidene-Benzo[β]Thiophene-2-Ethanamine Hydrochloride] | 10 nM

These reach a lower IC50. Values come first.

Row | IC50 | SMILES
4 | 1 nM | C=C=C(CN)CCCCCC [β-Ethenylidene-1-Octanamine Hydrochloride]
5 | 1 nM | C=C=C(CN)CCc1ccccc1 [β-Ethenylidenebenzenebutanamine Hydrochloride]
6 | 1 nM | C=C=C(CN)CCCc1ccccc1 [β-Ethenylidenebenzenepentanamine Hydrochloride]
